Experimental data from ChEMBL document CHEMBL1124140, “Oxidants, oxidant drugs, and malaria” (J Med Chem, 1988).
pEC50, pIC50: −log10 of the molar value.

Columns and labels:
[1] = test system: Plasmodium falciparum; assay: Inhibitory activity against chloroquine-resistant Plasmodium falciparum; assay type: functional, organism-based
[2] = test system: Plasmodium falciparum; assay: (§1) Inhibitory activity against Chloroquine-sensitive Plasmodium falciparum; assay type: functional, organism-based
[3] = test system: Plasmodium falciparum; assay: as §1; assay type: functional; conditions: read-out: ED50 (the source's name)
[4] = test system: Plasmodium falciparum; assay: Inhibitory activity against Chloroquine-resistant Plasmodium falciparum; assay type: functional; conditions: read-out: ED50 (the source's name)
[5] = test system: Plasmodium falciparum; assay: (§2) In vitro inhibition against Plasmodium falciparum; assay type: functional, organism-based
[6] = test system: Plasmodium falciparum; assay: In vitro inhibition against Plasmodium falciparum; […]; assay type: functional, organism-based
[7] = test system: Plasmodium falciparum; assay: as §2; assay type: functional; conditions: read-out: ED50 (the source's name)

CC(C)(C)OC(=O)OC1CCC2C[C@@H]3C=CC2(OO3)C1(C)C (some centres not stated)
pIC50 [1]: 6.48
pIC50 [2]: 6.72

CC(C)C12CCC(C)(CC1)OO2
pEC50 [3]: 7.10
pEC50 [4]: 6.68

CC(C)(C)COO
pIC50 [5]: 4.39

C[C@@H]1CC[C@H]2[C@@H](C)C(=O)O[C@@H]3O[C@@]4(C)CC[C@@H]1[C@]32OO4 [ARTEMISININ]
pIC50 [6]: 8.40

CC1=C2[C@H]3OC(=O)[C@@H](C)[C@@H]3CC[C@@]2(C)C=CC1=O [SANTONIN]
pEC50 [7]: 5.55
